In ChEMBL document CHEMBL1629429, “SAR studies of gymnasterkoreayne derivatives with cancer chemopreventive activities” (Bioorg Med Chem Lett, 2010):

Columns and labels:
[1] = Chemoprevention index, ratio of IC50 for mouse Hepa-1c1c7 cells to drug level required to double specific NADPH:quinone reductase activity in mouse Hepa-1c1c7 cells; type: functional
[2] = Cytotoxicity against mouse Hepa-1c1c7 cells; type: cell-based

| SMILES | Ratio IC50 [1] | IC50 [2] [µM] |
| --- | --- | --- |
| C=CCCCCC/C=C\C(O)C#CC#C[C@@H](O)[C@H](C)O (relative stereo) | 10.51 | 88.6 |
| C=CC(O)C#CC#C[C@@H](O)[C@H](C)O (relative stereo) | 1.12 | 177 |
| C=CCCCCC/C=C\C(O)C#CC#C[C@H](O)[C@H](C)O (some centres undefined) | 18.39 | 252 |
| CCCCCC(O)C#CC#C[C@H](O)[C@H](C)O (relative stereo) | >38.6 | > 500 |
| CCCCCCCCCC(O)C#CC#C[C@@H](O)[C@H](C)O (relative stereo) | 7.44 | 39.8 |
| C[C@H](O)[C@H](O)C#CC#CC(O)c1ccccc1 (relative stereo) | >13.57 | > 500 |
| CCCCCCCCCC(O)C#CC#C[C@H](O)[C@H](C)O (relative stereo) | 30.13 | 64.2 |
| CCCCCC(O)C#CC#C[C@@H](O)[C@H](C)O (relative stereo) | >31.66 | > 500 |
| CCC/C=C/C(O)C#CC#C[C@@H](O)[C@H](C)O (some centres undefined) | 14.77 | 422 |
| C[C@H](O)[C@H](O)C#CC#CC(O)Cc1ccccc1 (relative stereo) | >8.64 | > 500 |
| C[C@H](O)[C@H](O)C#CC#CC(O)C1CCCCC1 (relative stereo) | >3.8 | > 500 |
| CCCCCCCCCC(O)CCCC[C@@H](O)[C@H](C)O (some centres undefined) | – | > 500 |
| CCCCCCC(O)C#CC#C[C@@H](O)[C@H](C)O (relative stereo) | 25.66 | 223 |
| C=CCCCCC/C=C\[C@H](O)C#CC#CC1OC1C (some centres undefined) [GYMNASTERKOREAYNE B] | 9.57 | 70.6 |
| CC(C)=CC(O)C#CC#C[C@@H](O)[C@H](C)O (relative stereo) | 17.02 | 406 |
